# Experimental data reported in patent US20130072430A1, “METHODS FOR TREATMENT OR PROPHYLAXIS OF KIDNEY OR LIVER DYSFUNCTION” (NPS PHARMACEUTICALS, INC., priority 2010, published 2013).
# Test system: Human patients with short bowel syndrome
# Test: Example 2: liver biomarkers (albumin, gamma glutamyl transferase, total bilirubin, ALT, AST, ALP) in short bowel syndrome patients, every four weeks for 24 weeks
# Assay type: in vivo
# Details: 0.05 mg/kg/d
# Description: To further confirm the results of Example 1, a further study was conducted involving more individuals and additional diagnostic biomarkers. Human patients with short bowel syndrome were divided into two groups: a control group (43 total individuals) to receive placebo, and an experimental group (42 total individuals) to receive teduglutide at 0.05 mg/kg/day throughout the study. Patients were treated by subcutaneous injection of placebo or the appropriate dose of teduglutide. Known biomarkers of liver function were monitored every four weeks, for 24 weeks. The liver biomarkers tested included albumin, gamma glutamyl transferase, total bilirubin, ALT and AST and ALP. Before administration of placebo or teduglutide, diagnostic biomarker levels were tested to establish a baseline for each individual.
# To determine the effect of GLP-2 on the levels of the diagnostic biomarkers, the average level of each biomarker was measured for the placebo and teduglutide treated groups for each visit. Furthermore, the average change from baseline was calculated using the established baseline values. For FIGS. 17-28, p-values were calculated using the t-test.
# P values are provided, which were calculated for each distribution of biomarker changes for each week using the chi-squared test.
structure (smiles),measurement,setting,value
CC[C@H](C)[C@H](NC(=O)[C@H](Cc1ccccc1)NC(=O)[C@H](CC(=O)O)NC(=O)[C@H](CCCNC(=N)N)NC(=O)[C@H](C)NC(=O)[C@H](C)NC(=O)[C@H](CC(C)C)NC(=O)[C@H](CC(N)=O)NC(=O)[C@H](CC(=O)O)NC(=O)[C@H](CC(C)C)NC(=O)[C@@H](NC(=O)[C@@H](NC(=O)[C@H](CC(N)=O)NC(=O)[C@H](CCSC)NC(=O)[C@H](CCC(=O)O)NC(=O)[C@H](CC(=O)O)NC(=O)[C@H](CO)NC(=O)[C@H](Cc1ccccc1)NC(=O)[C@H](CO)NC(=O)CNC(=O)[C@H](CC(=O)O)NC(=O)CNC(=O)[C@@H](N)Cc1c[nH]cn1)[C@@H](C)O)[C@@H](C)CC)C(=O)N[C@@H](CC(N)=O)C(=O)N[C@@H](Cc1c[nH]c2ccccc12)C(=O)N[C@@H](CC(C)C)C(=O)N[C@H](C(=O)N[C@@H](CCC(N)=O)C(=O)N[C@H](C(=O)N[C@@H](CCCCN)C(=O)N[C@H](C(=O)N[C@H](C(=O)N[C@@H](CC(=O)O)C(=O)O)[C@@H](C)O)[C@@H](C)CC)[C@@H](C)O)[C@@H](C)CC [teduglutide],"Gamma Glutamyl Transferase Change from Baseline, Median","Week 8, n=40",−5.5 U/L
same,"Gamma Glutamyl Transferase Observed Value, Mean","Week 8, n=40",71.5 U/L
same,"Gamma Glutamyl Transferase Observed Value, Median","Week 8, n=40",46 U/L
same,"ALT >10% decrease from Baseline, % of subjects","Week 12, m=34",(50.0%)
same,"ALT >10% decrease from Baseline, n subjects","Week 12, m=34",17
same,"ALT >10% increase from Baseline, % of subjects","Week 12, m=34",(20.6%)
same,"ALT >10% increase from Baseline, n subjects","Week 12, m=34",7
same,"ALT Within 10% of Baseline, % of subjects","Week 12, m=34",(29.4%)
same,"ALT Within 10% of Baseline, n subjects","Week 12, m=34",10
same,"AST >10% decrease from Baseline, % of subjects","Week 12, m=34",(61.8%)
same,"AST >10% decrease from Baseline, n subjects","Week 12, m=34",21
same,"AST >10% increase from Baseline, % of subjects","Week 12, m=34",(20.6%)
same,"AST >10% increase from Baseline, n subjects","Week 12, m=34",7
same,"AST Within 10% of Baseline, % of subjects","Week 12, m=34",(17.6%)
same,"AST Within 10% of Baseline, n subjects","Week 12, m=34",6
same,"Albumin >10% decrease from Baseline, % of subjects","Week 12, m=34",(5.9%)
same,"Albumin >10% decrease from Baseline, n subjects","Week 12, m=34",2
same,"Albumin >10% increase from Baseline, % of subjects","Week 12, m=34",(2.9%)
same,"Albumin >10% increase from Baseline, n subjects","Week 12, m=34",1
same,"Albumin Within 10% of Baseline, % of subjects","Week 12, m=34",(91.2%)
same,"Albumin Within 10% of Baseline, n subjects","Week 12, m=34",31
same,"Alkaline Phosphatase >10% decrease from Baseline, % of subjects","Week 12, m=34",(67.6%)
same,"Alkaline Phosphatase >10% decrease from Baseline, n subjects","Week 12, m=34",23
same,"Alkaline Phosphatase >10% increase from Baseline, % of subjects","Week 12, m=34",(14.7%)
same,"Alkaline Phosphatase >10% increase from Baseline, n subjects","Week 12, m=34",5
same,"Alkaline Phosphatase Within 10% of Baseline, % of subjects","Week 12, m=34",(17.6%)
same,"Alkaline Phosphatase Within 10% of Baseline, n subjects","Week 12, m=34",6
same,"Bilirubin >10% decrease from Baseline, % of subjects","Week 12, m=34",(44.1%)
same,"Bilirubin >10% decrease from Baseline, n subjects","Week 12, m=34",15
same,"Bilirubin >10% increase from Baseline, % of subjects","Week 12, m=34",(26.5%)
same,"Bilirubin >10% increase from Baseline, n subjects","Week 12, m=34",9
same,"Bilirubin Within 10% of Baseline, % of subjects","Week 12, m=34",(29.4%)
same,"Bilirubin Within 10% of Baseline, n subjects","Week 12, m=34",10
same,"ALKALINE PHOSPHATASE Change from Baseline, Median","Week 12, n=34",−23 U/L
same,"ALT Change from Baseline, Mean","Week 12, n=34",−9.8 U/L
same,"ALT Change from Baseline, Median","Week 12, n=34",−4 U/L
same,"ALT Observed Value, Mean","Week 12, n=34",33.6 U/L
same,"ALT Observed Value, Median","Week 12, n=34",27.5 U/L
same,"AST Change from Baseline, Mean","Week 12, n=34",−4.2 U/L
same,"AST Change from Baseline, Median","Week 12, n=34",−5 U/L
same,"AST Observed Value, Mean","Week 12, n=34",28.4 U/L
same,"AST Observed Value, Median","Week 12, n=34",25 U/L
same,"Albumin Change from Baseline, Mean","Week 12, n=34",-0.9 g/L
same,"Albumin Change from Baseline, Median","Week 12, n=34",-1 g/L
same,"Albumin Observed Value, Mean","Week 12, n=34",41.2 g/L
same,"Albumin Observed Value, Median","Week 12, n=34",41 g/L
same,"Alkaline Phosphatase Change from Baseline, Mean","Week 12, n=34",−27.2 U/L
same,"Alkaline Phosphatase Observed Value, Mean","Week 12, n=34",108.6 U/L
same,"Alkaline Phosphatase Observed Value, Median","Week 12, n=34",98 U/L
same,"Bilirubin Change from Baseline, Mean","Week 12, n=34",-1.54 µmol/L
same,"Bilirubin Change from Baseline, Median","Week 12, n=34",-0.05 µmol/L
same,"Bilirubin Observed Value, Mean","Week 12, n=34",10.57 µmol/L
same,"Bilirubin Observed Value, Median","Week 12, n=34",8.35 µmol/L
same,"Gamma Glutamyl Transferase Change from Baseline, Mean","Week 12, n=34",−8.1 U/L
same,"Gamma Glutamyl Transferase Change from Baseline, Median","Week 12, n=34",−4 U/L
same,"Gamma Glutamyl Transferase Observed Value, Mean","Week 12, n=34",67.9 U/L
same,"Gamma Glutamyl Transferase Observed Value, Median","Week 12, n=34",51 U/L
same,"ALT >10% decrease from Baseline, % of subjects","Week 16, m=38",(52.6%)
same,"ALT >10% decrease from Baseline, n subjects","Week 16, m=38",20
same,"ALT >10% increase from Baseline, % of subjects","Week 16, m=38",(21.1%)
same,"ALT >10% increase from Baseline, n subjects","Week 16, m=38",8
same,"ALT Within 10% of Baseline, % of subjects","Week 16, m=38",(26.3%)
same,"ALT Within 10% of Baseline, n subjects","Week 16, m=38",10
same,"AST >10% decrease from Baseline, % of subjects","Week 16, m=38",(50.0%)
same,"AST >10% decrease from Baseline, n subjects","Week 16, m=38",19
same,"AST >10% increase from Baseline, % of subjects","Week 16, m=38",(18.4%)
same,"AST >10% increase from Baseline, n subjects","Week 16, m=38",7
same,"AST Within 10% of Baseline, % of subjects","Week 16, m=38",(31.6%)
same,"AST Within 10% of Baseline, n subjects","Week 16, m=38",12
same,"Albumin >10% decrease from Baseline, % of subjects","Week 16, m=38",(5.3%)
same,"Albumin >10% decrease from Baseline, n subjects","Week 16, m=38",2
same,"Albumin >10% increase from Baseline, n subjects","Week 16, m=38",0
same,"Albumin Within 10% of Baseline, % of subjects","Week 16, m=38",(94.7%)
same,"Albumin Within 10% of Baseline, n subjects","Week 16, m=38",36
same,"Alkaline Phosphatase >10% decrease from Baseline, % of subjects","Week 16, m=38",(60.5%)
same,"Alkaline Phosphatase >10% decrease from Baseline, n subjects","Week 16, m=38",23
same,"Alkaline Phosphatase >10% increase from Baseline, % of subjects","Week 16, m=38",(21.1%)
same,"Alkaline Phosphatase >10% increase from Baseline, n subjects","Week 16, m=38",8
same,"Alkaline Phosphatase Within 10% of Baseline, % of subjects","Week 16, m=38",(18.4%)
same,"Alkaline Phosphatase Within 10% of Baseline, n subjects","Week 16, m=38",7
same,"Bilirubin >10% decrease from Baseline, % of subjects","Week 16, m=38",(63.2%)
same,"Bilirubin >10% decrease from Baseline, n subjects","Week 16, m=38",24
same,"Bilirubin >10% increase from Baseline, % of subjects","Week 16, m=38",(23.7%)
same,"Bilirubin >10% increase from Baseline, n subjects","Week 16, m=38",9
same,"Bilirubin Within 10% of Baseline, % of subjects","Week 16, m=38",(13.2%)
same,"Bilirubin Within 10% of Baseline, n subjects","Week 16, m=38",5
same,"ALKALINE PHOSPHATASE Change from Baseline, Median","Week 16, n=38",−22.5 U/L
same,"ALT Change from Baseline, Mean","Week 16, n=38",−8.0 U/L
same,"ALT Change from Baseline, Median","Week 16, n=38",−3 U/L
same,"ALT Observed Value, Mean","Week 16, n=38",37.5 U/L
same,"ALT Observed Value, Median","Week 16, n=38",26.5 U/L
same,"AST Change from Baseline, Mean","Week 16, n=38",−3.3 U/L
same,"AST Change from Baseline, Median","Week 16, n=38",−3 U/L
same,"AST Observed Value, Mean","Week 16, n=38",29.8 U/L
same,"AST Observed Value, Median","Week 16, n=38",26 U/L
same,"Albumin Change from Baseline, Mean","Week 16, n=38",-0.7 g/L
same,"Albumin Change from Baseline, Median","Week 16, n=38",-0.5 g/L
same,"Albumin Observed Value, Mean","Week 16, n=38",41.7 g/L
same,"Albumin Observed Value, Median","Week 16, n=38",42 g/L
same,"Alkaline Phosphatase Change from Baseline, Mean","Week 16, n=38",−24.5 U/L
same,"Alkaline Phosphatase Observed Value, Mean","Week 16, n=38",114.2 U/L
same,"Alkaline Phosphatase Observed Value, Median","Week 16, n=38",102 U/L
same,"Bilirubin Change from Baseline, Mean","Week 16, n=38",-3.41 µmol/L
same,"Bilirubin Change from Baseline, Median","Week 16, n=38",-1.75 µmol/L
same,"Bilirubin Observed Value, Mean","Week 16, n=38",9.40 µmol/L
same,"Bilirubin Observed Value, Median","Week 16, n=38",8.1 µmol/L
same,"Gamma Glutamyl Transferase Change from Baseline, Mean","Week 16, n=38",−7.0 U/L
same,"Gamma Glutamyl Transferase Change from Baseline, Median","Week 16, n=38",−5.5 U/L
